Assay results reported in ChEMBL document CHEMBL1201862, “PubChem BioAssay data set” (2004).
One block for each compound: values may come before it. The source made the active and inactive calls.

Key:
[1] = cells; conditions: HEK293
[2] = viability loss in HepG2 liver cells – cell-based, ATP luminescence, cherry-pick, set 6, cytotoxicity control, dose response (AID 1053125); type: functional
[3] = biological target: COUP transcription factor 2 (Homo sapiens, UniProt P24468); assay: Luminescence-based cell-based high throughput dose response assay to identify inhibitors of COUP-TFII (NR2F2).; type: functional;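 further: HEK293 cells transiently cotransfected with COUP-TFII expression vector and reporter; luciferase reporter luminescence driven by COUP-TFII from the pX2-168 reporter plasmid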
Sequence of COUP transcription factor 2 (P24468 whole entry): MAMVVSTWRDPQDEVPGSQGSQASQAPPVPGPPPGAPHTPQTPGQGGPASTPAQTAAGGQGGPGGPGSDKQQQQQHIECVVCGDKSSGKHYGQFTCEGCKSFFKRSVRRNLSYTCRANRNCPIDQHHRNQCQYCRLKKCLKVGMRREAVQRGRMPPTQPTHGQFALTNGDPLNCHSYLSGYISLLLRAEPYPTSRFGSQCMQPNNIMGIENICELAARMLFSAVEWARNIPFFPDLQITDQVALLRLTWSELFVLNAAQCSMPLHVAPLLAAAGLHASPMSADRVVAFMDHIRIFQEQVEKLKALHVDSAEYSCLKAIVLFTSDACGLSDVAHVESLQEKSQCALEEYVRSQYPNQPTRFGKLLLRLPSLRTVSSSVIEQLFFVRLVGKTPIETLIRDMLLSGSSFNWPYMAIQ

[4] = biological target: T1, Heat shock factor protein 1 (Mus musculus, UniProt P38532); assay: enhancement of HSF1-driven luciferase signal – cell-based, NIH3T3, luminescence, dose retest, confirmation (AID 435004); type: functional;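 further: stress induced by proteasome inhibitor MG132 added 30 min after compound; luciferase reporter driven by HSF1 response element in NIH3T3 cells; actives raise luminescence as potentiators of the MG132 stress response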
T1 sequence (P38532 whole entry): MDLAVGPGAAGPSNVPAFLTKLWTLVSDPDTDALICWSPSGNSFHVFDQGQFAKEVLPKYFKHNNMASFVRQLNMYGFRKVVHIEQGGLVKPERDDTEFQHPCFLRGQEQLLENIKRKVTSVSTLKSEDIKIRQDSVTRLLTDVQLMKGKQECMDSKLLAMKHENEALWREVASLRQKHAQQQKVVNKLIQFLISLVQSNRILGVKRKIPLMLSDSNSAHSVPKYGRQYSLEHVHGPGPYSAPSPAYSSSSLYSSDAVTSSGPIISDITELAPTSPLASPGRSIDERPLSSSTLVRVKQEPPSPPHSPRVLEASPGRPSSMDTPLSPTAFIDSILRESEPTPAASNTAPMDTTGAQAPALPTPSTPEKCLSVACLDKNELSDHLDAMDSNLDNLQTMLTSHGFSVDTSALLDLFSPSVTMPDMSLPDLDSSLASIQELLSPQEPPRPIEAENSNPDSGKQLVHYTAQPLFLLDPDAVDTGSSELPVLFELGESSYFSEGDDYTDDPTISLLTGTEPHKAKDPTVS

[5] = viability of PTEN-deleted HCT116 cells – cell-based, HCT116 PTEN knockout, dose response (AID 1047); type: functional;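 further: HCT116 colon tumor cells with PTEN knocked out; cells exposed to compound for 60 hours before readout; potency for loss of cell viability measured by luminescence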
[6] = biological target: T2, Protein skinhead-1 (Caenorhabditis elegans, UniProt P34707); type: functional
T2 sequence (P34707 whole entry): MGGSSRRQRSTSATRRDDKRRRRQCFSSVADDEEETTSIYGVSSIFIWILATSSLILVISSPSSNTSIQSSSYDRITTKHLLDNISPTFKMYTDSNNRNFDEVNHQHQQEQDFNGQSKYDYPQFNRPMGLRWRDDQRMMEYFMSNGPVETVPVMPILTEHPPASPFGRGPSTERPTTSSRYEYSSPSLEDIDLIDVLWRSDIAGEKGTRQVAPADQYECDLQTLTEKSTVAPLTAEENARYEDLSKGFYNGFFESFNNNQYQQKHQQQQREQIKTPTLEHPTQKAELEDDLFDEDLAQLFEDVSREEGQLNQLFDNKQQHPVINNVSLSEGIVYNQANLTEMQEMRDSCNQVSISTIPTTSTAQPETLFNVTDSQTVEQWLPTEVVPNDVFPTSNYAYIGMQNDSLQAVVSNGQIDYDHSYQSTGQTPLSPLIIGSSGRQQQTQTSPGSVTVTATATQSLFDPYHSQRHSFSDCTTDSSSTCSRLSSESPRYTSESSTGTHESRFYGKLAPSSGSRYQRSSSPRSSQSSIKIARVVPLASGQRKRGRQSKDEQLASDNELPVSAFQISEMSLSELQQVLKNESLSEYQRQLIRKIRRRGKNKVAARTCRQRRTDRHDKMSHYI

[7] = reduced cellular PGC1a acetyl-lysine signal – cell-based, cherry-picked samples, dose response (AID 720514); type: functional;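 further: potency may reflect raised or lowered acetylation signal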
[8] = viability of HCT116 lacking mutant beta-catenin – cell-based, human colon tumor, dose response (AID 1045); type: functional;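 further: HCT116 colon tumor cells with beta catenin knocked out; cells exposed to compound for 60 hours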
[9] = biological target: Disintegrin and metalloproteinase domain-containing protein 17 (Homo sapiens, UniProt P78536); assay: inhibition of ADAM17 substrate cleavage – biochemical, quenched FRET substrate, counter-screen for ADAM10 exosite inhibitor project, dose response (AID 743253)
Sequence of Disintegrin and metalloproteinase domain-containing protein 17 (P78536 whole entry, the tested form may be a part): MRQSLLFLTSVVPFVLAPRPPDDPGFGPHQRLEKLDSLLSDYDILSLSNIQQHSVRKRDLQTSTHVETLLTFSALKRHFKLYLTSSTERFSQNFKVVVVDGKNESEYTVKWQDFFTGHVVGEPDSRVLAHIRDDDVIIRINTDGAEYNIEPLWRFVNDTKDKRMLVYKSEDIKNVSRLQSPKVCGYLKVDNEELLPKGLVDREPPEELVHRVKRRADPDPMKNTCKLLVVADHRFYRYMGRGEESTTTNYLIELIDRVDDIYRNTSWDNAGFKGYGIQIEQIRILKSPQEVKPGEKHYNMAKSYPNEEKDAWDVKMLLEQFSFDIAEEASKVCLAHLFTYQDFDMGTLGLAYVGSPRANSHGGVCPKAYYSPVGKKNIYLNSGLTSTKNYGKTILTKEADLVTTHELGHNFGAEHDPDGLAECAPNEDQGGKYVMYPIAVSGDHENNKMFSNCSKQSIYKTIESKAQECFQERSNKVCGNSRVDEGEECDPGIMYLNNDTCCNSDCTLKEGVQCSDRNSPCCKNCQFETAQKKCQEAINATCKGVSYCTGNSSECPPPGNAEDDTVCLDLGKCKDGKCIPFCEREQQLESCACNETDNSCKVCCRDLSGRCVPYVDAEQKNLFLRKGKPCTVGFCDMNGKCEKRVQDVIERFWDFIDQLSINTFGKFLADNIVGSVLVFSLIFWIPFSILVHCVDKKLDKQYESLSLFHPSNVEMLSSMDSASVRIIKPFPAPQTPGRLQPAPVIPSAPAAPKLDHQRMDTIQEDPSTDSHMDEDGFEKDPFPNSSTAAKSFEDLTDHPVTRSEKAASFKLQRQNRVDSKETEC

[10] = potency of ADAM10 substrate cleavage blockers – biochemical, QFRET, dose response (AID 743254);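 further: ADAM10 enzyme with the DM2 quenched FRET peptide as substrate; EDANS fluorescence gain as the protease cuts the substrate; inhibitor potency against ADAM10 proteolytic activity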
[11] = OVCAR4 cell viability loss – plate reader, dry powder, SA11, cytotoxicity control for PAX8 inhibitor project, dose response (AID 743150); type: functional, cell-based; conditions: OVCAR-4
[12] = Fluorescence-based cell-based high throughput dose response assay for inhibitors of the interaction of nucleotide-binding oligomerization domain containing 2 (NOD2) and the receptor-interacting serine-threonine kinase 2 (RIPK2).; type: functional; conditions: Homo sapiens
[13] = IGROV1 cell killing – plate reader, dry powder samples, PAX8 inhibitor project, dose response (AID 743043); type: functional, cell-based; conditions: IGROV-1
[14] = A2780 cell killing – plate reader, dry powder samples, cytotoxicity control, dose response (AID 743046); type: functional, cell-based
[15] = biological target: Paired box protein Pax-8 (Homo sapiens, UniProt Q06710); assay: PAX8 transcriptional activity inhibition in RMG-I – RMG-I cells, luciferase, cherry-pick, dose response (AID 687027); type: functional, cell-based;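 further: luciferase reporter driven by Pax8 target thyroperoxidase promoter measured by SteadyGlo luminescence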
Sequence of Paired box protein Pax-8 (Q06710 whole entry): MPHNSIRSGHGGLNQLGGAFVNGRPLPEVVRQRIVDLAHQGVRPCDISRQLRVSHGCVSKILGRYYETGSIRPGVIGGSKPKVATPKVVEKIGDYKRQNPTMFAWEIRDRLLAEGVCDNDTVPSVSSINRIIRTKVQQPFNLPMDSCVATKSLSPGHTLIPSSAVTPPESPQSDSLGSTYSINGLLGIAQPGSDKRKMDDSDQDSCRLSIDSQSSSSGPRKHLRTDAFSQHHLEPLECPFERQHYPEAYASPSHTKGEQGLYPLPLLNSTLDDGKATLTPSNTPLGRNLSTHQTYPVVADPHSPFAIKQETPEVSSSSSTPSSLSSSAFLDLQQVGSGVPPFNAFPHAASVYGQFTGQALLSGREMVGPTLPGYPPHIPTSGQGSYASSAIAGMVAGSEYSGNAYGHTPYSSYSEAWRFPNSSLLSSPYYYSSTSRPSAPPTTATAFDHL

[16] = inhibitors acting on PAX2 in cells – cell-based, plate reader, dry powder samples, selectivity assay for PAX8 inhibitor project, dose response (AID 743048); type: functional;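 further: HEK293 cells carrying a WT1 promoter luciferase reporter driven by expressed Pax2; potency is for inhibition of Pax2 driven reporter signal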
[17] = toxicity toward immortalized ovarian surface epithelium – cell-based, plate reader, dry powder samples, cytotoxicity control for PAX8 inhibitor project, dose response (AID 743045); type: functional
[18] = OV-90 cell viability loss – plate reader, dry powder, SA8, PAX8 inhibitor project, dose response (AID 743149); type: functional, cell-based
[19] = COV362 cell viability loss – plate reader, dry powder, SA12, cytotoxicity control for PAX8 inhibitor project, dose response (AID 743144); type: functional, cell-based
[20] = OVCAR-3 cell viability loss – plate reader, dry powder samples, PAX8 inhibitor project, dose response (AID 743044); type: functional, cell-based
[21] = PAX5 cellular inhibition readout – cell-based, plate reader, dry powder samples, selectivity assay for PAX8 inhibitor project, dose response (AID 743047); type: functional;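 further: HEK293 cells carrying a Pax5 driven CD19 promoter luciferase reporter; potency of inhibitors that lower reporter luminescence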
[22] = PAX8-dependent cell viability loss – plate reader, dry powder, dose response (AID 743049); type: functional, cell-based
[23] = COV434 cell viability loss – plate reader, dry powder, SA7, cytotoxicity control for PAX8 inhibitor project, dose response (AID 743145); type: functional, cell-based
[24] = biological target: fMet-Leu-Phe receptor (Homo sapiens, UniProt P21462); assay: formyl peptide receptor binders – dose response (AID 519); type: functional
Sequence of fMet-Leu-Phe receptor (P21462 whole entry): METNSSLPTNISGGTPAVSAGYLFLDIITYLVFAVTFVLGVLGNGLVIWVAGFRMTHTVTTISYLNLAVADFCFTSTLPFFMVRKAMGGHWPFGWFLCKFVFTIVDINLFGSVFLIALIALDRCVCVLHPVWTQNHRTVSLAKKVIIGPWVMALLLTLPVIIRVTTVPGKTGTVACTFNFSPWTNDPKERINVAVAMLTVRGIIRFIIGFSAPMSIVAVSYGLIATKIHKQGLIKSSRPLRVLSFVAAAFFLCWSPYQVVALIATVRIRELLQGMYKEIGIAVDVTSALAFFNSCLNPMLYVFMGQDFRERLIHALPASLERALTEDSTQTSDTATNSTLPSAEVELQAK

[25] = biological target: NAD-dependent protein deacylase sirtuin-5, mitochondrial (Homo sapiens, UniProt Q9NXA8); assay: sirtuin-5 deacylation blockers, concentration series – biochemical, fluorescence imaging, cherry-pick, set 5, dose response (AID 720591);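 further: desuccinylation of succinyl peptide AMC substrate read as fluorescence after trypsin release; potency of inhibitors that lower fluorescence and may act on trypsin instead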
Sequence of NAD-dependent protein deacylase sirtuin-5, mitochondrial (Q9NXA8 whole entry): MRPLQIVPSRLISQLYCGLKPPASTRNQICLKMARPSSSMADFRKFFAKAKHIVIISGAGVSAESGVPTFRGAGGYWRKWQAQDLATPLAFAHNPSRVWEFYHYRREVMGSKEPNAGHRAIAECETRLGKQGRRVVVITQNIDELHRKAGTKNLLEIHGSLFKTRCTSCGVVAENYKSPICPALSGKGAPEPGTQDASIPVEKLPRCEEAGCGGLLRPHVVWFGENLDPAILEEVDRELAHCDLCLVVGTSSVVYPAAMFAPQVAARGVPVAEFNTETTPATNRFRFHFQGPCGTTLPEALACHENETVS

[26] = viability loss in HEK293 kidney cells – cell-based, cherry-picks, set 5, cytotoxicity control, dose response (AID 1053117); type: functional
[27] = intracellular Trypanosoma cruzi inhibitors in host cells – cell-based, plate reader, cherry-pick samples, set 3, dose response (AID 651818); type: functional;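 further: compounds incubated with infected cells for about four days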
[28] = viability loss in A549 lung cancer cells – cell-based, cherry-picks, […], cytotoxicity control, dose response (AID 1053119); type: functional
[29] = viability loss in HepG2 hepatoma cells – cell-based, cherry-picks, set 5, cytotoxicity control, dose response (AID 1053118); type: functional

Compound: Cc1ccc(OCC(=O)NNc2c3ccccc3nc3ccccc23)cc1
- AC50 [1]: 27.7 µM (active)
- AC50 [2]: > 52 µM (inactive)

- IC50 [3]: 11.9 µM (inactive)
- EC50 [4]: > 260 µM (inactive)
Compound: Cc1ccc(-n2nc3c(=O)n(C(C)C(=O)NCc4ccccc4Cl)nc(C)c3c2C)cc1 (centres undefined)

Compound: Cc1[nH]c2ccccc2c1C(=O)/C=C/c1ccccc1
- EC50 [5]: 22 µM (active)
- IC50 [6]: > 100 µM (inactive)
- AC50 [7]: 29.8 µM (active)
- EC50 [8]: 19.2 µM (active)

- IC50 [9]: > 69.5 µM (inactive)
- IC50 [10]: > 69.5 µM (inactive)
Compound: CCOC(=O)c1c(NC(=O)CN2C(=O)NC(C)(c3ccc(OC(F)F)cc3)C2=O)sc(C)c1C (centres undefined)

Compound: Cc1cccc2sc(N(CCCN(C)C)C(=O)CCS(=O)(=O)c3ccccc3)nc12
- AC50 [11]: 34.8 µM (active)
- IC50 [12]: 6.59 µM (active)
- AC50 [13]: 11.5 µM (active)
- AC50 [14]: 6.9 µM (active)
- AC50 [15]: 6.18 µM (active)
- AC50 [16]: 35.7 µM (active)
- AC50 [17]: 21.8 µM (active)
- AC50 [18]: 17.1 µM (active)
- AC50 [19]: 20.3 µM (active)
- AC50 [20]: 8.92 µM (active)
- AC50 [21]: 43.1 µM (active)
- AC50 [22]: 7.67 µM (active)
- AC50 [23]: 8.43 µM (active)

- Ki [24]: > 66.7 µM (inactive)
Compound: CCCC(=O)Nc1cc(-c2cn3cccnc3n2)ccc1OC

- AC50 [25]: > 30 µM (inactive)
Compound: CN(C)CCN(Cc1cccs1)S(=O)(=O)c1csc(C(N)=O)c1

Compound: C[C@H]1CN([C@@H](C)CO)C(=O)c2cccc(NC(=O)Nc3ccc(C(F)(F)F)cc3)c2O[C@@H]1CN(C)C(=O)Nc1cccc2ccccc12
- AC50 [26]: 19.8 µM (active)
- AC50 [27]: 4.5 µM (active)
- AC50 [28]: 29.7 µM (active)
- AC50 [29]: 25 µM (active)
